From US7763752B2, “Amino alcohol derivatives, salts thereof and immunosuppresive agents” (Kyorin Pharmaceutical Co., Ltd., priority 2002, dated 2010) come the findings set out here.

The test system of data set [1] is Host vs Graft Reaction in Mice. The data set can be described thus: Inhibitory effects of test compounds on host vs graft reaction in mice (popliteal lymph node weight). Type of data set: in vivo, C3H/HeN mice. How it is done: Inhibitory Effects of Test Compounds on Host vs Graft Reaction in Mice
This experiment was performed according to the method described in Transplantation 55(3) (1993): 578-591. Spleens were collected from 7 to 12 week old male BALB/c mice (available from CLEA JAPAN Inc., CHARLES RIVER JAPAN Inc., or JAPAN SLC Inc.). The spleens were placed in an RPMI-1640 medium (SIGMA, GIBCO […] Inc., or IWAKI GLASS Co., Ltd.) and were gently pressed between two slide glasses and then passed through a cell strainer (70 μm, Falcon) to form a cell suspension. The suspension was then centrifuged and the supernatant was discarded. An ammonium chloride-Tris isotonic buffer was added to the suspension to lyse erythrocytes. The cells were then centrifuged three times in RPMI-1640 medium for washing and were resuspended in an RPMI-1640 medium. To this suspension, mitomycin C (KYOWA HAKKO KOGYO Co., Ltd.) was added to a final concentration of 25 μg/mL and the suspension was incubated for 30 minutes at 37° C. in a 5% CO2 atmosphere. The cells were centrifuged three times in RPMI-1640 medium for washing and were resuspended in an RPMI-1640 medium so that the medium would contain 2.5×10^8 cells/mL. This suspension served as a “stimulation cell suspension.” Using a 27 G needle, along with a microsyringe (Hamilton), 20 μL (5×10^6 cells/mouse) of the stimulation cell suspension was subcutaneously injected into the right hind footpad of 6 to 12 week old male C3H/HeN mice (CLEA JAPAN Inc., CHARLES RIVER JAPAN Inc., or JAPAN SLC Inc.). As a normal control group, a group of mice were injected with RPMI-1640 medium alone. 4 days after the injection, right popliteal lymph nodes were collected and were weighed on a Mettler AT201 electronic scale (METTLER TOLEDO Co., Ltd.). Each animal was intraperitoneally administered a test compound once a day for four consecutive days starting on the day of the injection of the stimulation cells (i.e., total of 4 times). As a control group, a group of the animals were administered the same solvent as that used in the preparation of each test compound.

Setting [2] is: Mus musculus, ip, dose 0.03 mg/kg.
Setting [3] is: Mus musculus, ip, dose 0.1 mg/kg.

Structures can show the parent of a compound that is named as a salt.

As to `CC(N)(CO)CCc1ccc(Sc2cccc(OCc3ccccc3)c2)cc1Cl.Cl` (single isomer, unassigned; (+)) [Example 192, (+)-2-amino-4-[4-(3-benzyloxyphenylthio)-2-chlorophenyl]-2-methylbutane-1-ol hydrochloride], the “Inhibition (%)” value in data set [1] (dose 0.1 mg/kg, hydrochloride) is recorded as 86%. Turning to `CC(N)(CO)CCCc1ccc(Sc2cccc(OCc3ccccc3)c2)cc1Cl` (single isomer, unassigned; (+)) [Example 184, (+)-2-amino-5-[4-(3-benzyloxyphenylthio)-2-chlorophenyl]-2-methylpentane-1-ol], the “Inhibition (%)” value in data set [1] (dose 0.1 mg/kg) is given as 45%. Regarding `CC(N)(CO)CCc1ccc(Sc2cccc(OCc3ccccc3)c2)cc1Cl.Cl` (single isomer, unassigned; (+)) [Example 191, (+)-2-amino-4-[4-(3-benzyloxyphenylthio)-2-chlorophenyl]-2-methylbutane-1-ol hydrochloride], in data set [1] (dose 0.1 mg/kg, hydrochloride), the “Inhibition (%)” value came to 41%. Usually inhibition in vivo stands for the change of the read-out against control, counted positive when it falls. High values mean a response far below the control, low ones a response near the control. As for `CC(C)CC(N)(CO)CCCc1ccc(Sc2cccc(OCc3ccccc3)c2)cc1Cl` (stereo not shown) [Example 223, 2-amino-5-[4-(3-benzyloxyphenylthio)-2-chlorophenyl]-2-isobutylpentane-1-ol hydrochloride], the inhibition in vivo at 0.3 mg/kg in data set [1] (Mus musculus, ip) amounted to 70%. `CC(O)C(CCCc1ccc(Oc2cccc(OCc3ccccc3)c2)cc1Cl)NC(=O)OC(C)(C)C` (stereo not shown) [Example 131, 6-[4-(3-benzyloxyphenoxy)-2-chlorophenyl]-3-t-butoxycarbonylaminohexane-2-ol] showed an inhibition in vivo at 0.3 mg/kg in data set [1] (Mus musculus, ip) of 57%. As a reminder, the melting point is the temperature, or range, at which the solid turns liquid. In the case of `Cl.NC(CO)CCCc1ccc(S(=O)(=O)c2cccc(OCc3ccccc3)c2)cc1Cl` (stereo not shown), the melting point was 154 to 156 °C.

Turning to `NC(CO)(CCO)CCCc1ccc(Sc2cccc(OCc3ccccc3)c2)cc1Cl` (stereo not shown) [Example 148, 3-amino-6-[4-(3-benzyloxyphenylthio)-2-chlorophenyl]-3-hydroxymethylhexanol hydrochloride], in data set [1] (Mus musculus, ip), 0.3 mg/kg produced 71% inhibition in vivo. As for `Cl.NC(CO)CCCc1ccc(Sc2cccc(C(F)(F)F)c2)cc1Cl` (stereo not shown), the melting point is 166 to 168 °C. With `NC(CO)(CCCO)CCCc1ccc(Sc2cccc(OCc3ccccc3)c2)cc1Cl` (stereo not shown) [Example 151, 4-amino-7-[4-(3-benzyloxyphenylthio)-2-chlorophenyl]-4-hydroxymethylheptanol hydrochloride], in data set [1] (setting [2]), the inhibition in vivo at 0.03 mg/kg stood at 65%. Consider `C#CCC(N)(CO)CCCc1ccc(Sc2cccc(OCc3ccccc3)c2)cc1Cl` (stereo not shown) [Example 222, 2-amino-5-[4-(3-benzyloxyphenylthio)-2-chlorophenyl]-2-propargylpentane-1-ol hydrochloride], for which the inhibition in vivo at 0.3 mg/kg in data set [1] (Mus musculus, ip) worked out at 57%. In data set [1] (Mus musculus, ip, dose 10 mg/kg), `OCC(CCCc1ccc(Oc2cccc(C(F)(F)F)c2)cc1)Nc1ccccc1` (stereo not shown) [Example 127, 2-phenylamino-5-[4-(3-trifluoromethylphenoxy)phenyl]pentane-1-ol] showed an inhibition in vivo at 10 mg/kg of 57%.

As to `CCCC(N)(CO)CCCc1ccc(Sc2cccc(OCc3ccccc3)c2)cc1Cl.Cl` (single isomer, unassigned; (+)) [Example 209, (+)-2-amino-5-[4-(3-benzyloxyphenylthio)-2-chlorophenyl]-2-propylpentane-1-ol], the melting point was in the range of 55 to 57 °C. Besides, the “Inhibition (%)” value in data set [1] (dose 0.03 mg/kg) is given as 71%. In data set [1] (setting [2]), `CCC(N)(CO)CCc1ccc(Sc2cccc(OCc3ccccc3)c2)cc1Cl` (single isomer, unassigned; (-)) [Example 196, (−)-2-amino-4-[4-(3-benzyloxyphenylthio)-2-chlorophenyl]-2-ethylbutane-1-ol] returned an inhibition in vivo at 0.03 mg/kg of 63%.

As to `CCCC(N)(CO)CCCc1ccc(Sc2cccc(OCc3ccccc3)c2)cc1Cl` (stereo not shown) [Example 197], testing at 0.03 mg/kg in data set [1] (setting [2]) gave an inhibition in vivo of 54%.

In data set [1] (Mus musculus, ip, dose 1 mg/kg), `CC(O)C(N)CCCc1ccc(Sc2cccc(OCc3ccccc3)c2)cc1Cl` (stereo not shown) [Example 135, 3-amino-6-[4-(3-benzyloxyphenylthio)-2-chlorophenyl]hexane-2-ol hydrochloride] yielded an inhibition in vivo at 1 mg/kg of 69%.

In turn, `CCC(N)=C(CO)CCCc1ccc(Sc2cccc(OCc3ccccc3)c2)cc1Cl` [Example 227, 3-amino-7-[4-(3-benzyloxyphenylthio)-2-chlorophenyl]-4-hydroxymethyl-3-heptene hydrochloride] came in with an inhibition in vivo at 0.3 mg/kg in data set [1] (Mus musculus, ip) of 58%. For `CCC(N)(CO)CCCc1ccc(Sc2cccc(OCc3ccccc3)c2)cc1Cl` (racemic) [Example 188, (±)-2-amino-5-[4-(3-benzyloxyphenylthio)-2-chlorophenyl]-2-ethylpentane-1-ol hydrochloride], testing at 0.1 mg/kg in data set [1] (setting [3]) gave an inhibition in vivo of 78%. In the case of `CC(N)(CO)CCCc1ccc(Sc2cccc(OCc3ccccc3)c2)cc1Cl` (single isomer, unassigned; (+)) [Example 185, (+)-2-amino-5-[4-(3-benzyloxyphenylthio)-2-chlorophenyl]-2-methylpentane-1-ol], the “Inhibition (%)” value in data set [1] (dose 0.1 mg/kg) turned out to be 88%. In data set [1] (setting [3]), `CCC(N)(CO)CCc1ccc(Sc2cccc(OCc3ccccc3)c2)cc1Cl` (racemic) [Example 194, (±)-2-amino-4-[4-(3-benzyloxyphenylthio)-2-chlorophenyl]-2-ethylbutane-1-ol] returned an inhibition in vivo at 0.1 mg/kg of 70%. In turn, `CC(=O)NC(CO)CCc1ccc(Sc2cccc(OCc3ccccc3)c2)cc1Cl` (stereo not shown) [Example 201, 2-acetylamino-4-[4-(3-benzyloxyphenylthio)-2-chlorophenyl]butane-1-ol] showed a melting point of 78 to 81 °C. In data set [1] (setting [2]), `CCC(N)(CO)CCCc1ccc(Sc2cccc(OCc3ccccc3)c2)cc1Cl` (single isomer, unassigned; (+)) [Example 189, (+)-2-amino-5-[4-(3-benzyloxyphenylthio)-2-chlorophenyl]-2-ethylpentane-1-ol] had an inhibition in vivo at 0.03 mg/kg of 71%.
